Patent EP0840727B1, “3-HYDROXY-2(1H)-[…] AGENTS” (priority 1995, dated 1997)
Marks after values point to notes of the source that are not given here.

Assays:
[1] = In vivo acute toxicity test of injected ligands in mice
Procedure: The test of acute toxicity of novel and comparative ligands was carried out as follows. Groups of five mice were each given a single i.p. injection of […] of ligand and a day for 10 days or given two i.p. injections of […] in 8 hours. The ligand was dissolved in 0.5 to 1.0 ml of saline at pH 7 to 8. After a period of observation, the mice were killed; selected tissues were removed and fixed for histopathological examination; and unusual findings at autopsy were recorded. […]

[2] = Promoting excretion of 238Pu(IV) in mice by injected ligands; type: in vivo; settings: for percent of injected ^238Pu ± SD at 24 h, tissues: liver / percent of injected ^238Pu ± SD at 24 h, tissues: skeleton / percent of injected ^238Pu ± SD at 24 h, tissues: soft tissue / percent of injected ^238Pu ± SD at 24 h, whole body / percent of injected ^238Pu at 24 h, excreta: feces and GI contents / percent of injected ^238Pu at 24 h, excreta: urine 0-24 h / percent of injected ^238Pu at 24 h, tissues: kidneys: ligand 30 µmol kg^-1 ip at 1 h after iv ^238Pu(IV) citrate, kill at 24 h; for percent of injected ^238Pu at 24 h, excreta: feces and GI contents / percent of injected ^238Pu at 24 h, excreta: urine 0-24 h / percent of injected ^238Pu at 24 h, tissues: kidneys: pooled samples
Excerpt: Animal studies were completed using methods detailed in Radiation Protection Dosimetry, in press, P. W. Durbin et al., "In Vivo Chelation of Am(III), Pu(IV), Np(V) and U(VI) in Mice by TREN-(Me-3,2-HOPO)"; Radiation Protection Dosimetry, 17, No. 1, 1989, p. 351, P. W. Durbin et al., "Removal of ^238Pu(IV) from Mice by Polycatechoylate, -Hydroxamate or -Hydroxypyridinonate Ligands"; Radiation Research, 99, 1984, p. 85, P. W. Durbin et al., "Specific Sequestering Agents for the Actinides ..."; Radiation Research, 99, 1984, p. 106, P. W. Durbin et al., "Removal of Pu and Am from Beagles and Mice ..."; Radiation Research, 81, 1980, p. 170, R. D. Lloyd et al., and P. W. Durbin et al., "Specific Sequestering Agents for the Actinides ...". The foregoing articles are hereby incorporated by reference.
Radionuclides used in the animal studies came from a variety of sources. However, they can be purchased commercially. The ^238Pu(IV) citrate and ^241Am(III) citrate solutions were prepared for animal injection by 8- to 10-fold dilution with 0.14M NaCl (pH 4) of concentrated stock solutions (0.08M sodium citrate buffer) that had been held in frozen storage at Lawrence Berkeley Laboratory (hereinafter LBL) for several years. [The ^238Pu(IV) was originally obtained from D. R. Atherton at the University of Utah Radiobiology Laboratory, Salt Lake City. The ^241Am(III) solution had been obtained many years earlier from the LBL Actinide Chemistry group.]
The novel chelating agents of the present invention and comparative compounds were tested for their effectiveness in promoting excretion ^238Pu(IV) in nice by injected ligands as follows. Mice, in groups of five, each received an intravenous injection of 1850 Bq ^238Pu(IV) in 0.2 mL of citrate buffer. One hour later, 30 µmol/kg of ligand was injected intraperitoneally in 0.5 mL of saline. The mice were killed 24 hours after the Pu injection, frozen, and dissected after partial thawing. The ^238Pu in skeleton, soft tissues, and separated excreta was determined by counting the ^234U L x-rays. Results of removal of ^238Pu(IV) from mice by injected ligands are summarized in Table 3, which also includes data for CaNa3-DTPA and other reference ligands and the Pu-injected controls. […] While the case of multidente 1,2-HOPO and catechoylamide chelating agents, octadentates are always better chelating agents than the corresponding hexadentates and tetradentates.

[3] = protocol IA, 100 µmol kg^-1 x 2 daily, study length 6 d, data for two moribund mice autopsied on d 3
[4] = protocol I, 100 µmol kg^-1 x 10 daily i.p., study length 11 d
[5] = protocol I, 100 µmol kg^-1 x 10 daily i.p., study length 21 d
[6] = protocol II, 500 µmol kg^-1 x 2 in 8 h, study length 11 d

| SMILES | percent of injected ^238Pu ± SD at 24 h, tissues: liver [2] | percent of injected ^238Pu ± SD at 24 h, tissues: skeleton [2] | percent of injected ^238Pu ± SD at 24 h, tissues: soft tissue [2] | percent of injected ^238Pu ± SD at 24 h, whole body [2] | percent of injected ^238Pu at 24 h, excreta: feces and GI contents [2] | percent of injected ^238Pu at 24 h, excreta: urine 0-24 h [2] | percent of injected ^238Pu at 24 h, tissues: kidneys [2] | other results |
| --- | --- | --- | --- | --- | --- | --- | --- | --- |
| Cn1ccc(C(=O)NCCCNC(=O)c2ccn(C)c(=O)c2O)c(O)c1=O [3-LI-Me-3,2-HOPO, 1,3-bis[(3-hydroxy-1-methyl-2-oxo-1,2-dihydropyridin-4yl)carboxamido]propane] | 9.5 ± 4.9^d percent of injected ^238Pu | 14 ± 1.9% of injected ^238Pu | 2.6 ± 0.4% of injected ^238Pu | 27 ± 5.2% of injected ^238Pu | 41.6% of injected ^238Pu | 32% of injected ^238Pu | 0.5% of injected ^238Pu | no. of survivors ([1]; protocol IA, 100 µmol kg^-1 x 2 daily, study length 6 d): 0; percent control mean + SD: body weight [1, 3]: 89 ± 4 percent control; percent control mean + SD: kidney weight [1, 3]: 222 ± 29 percent control; percent control mean + SD: plasma urea N [1, 3]: >1800 percent control |
| Cc1c(CNC(=O)c2ccn(C)c(=O)c2O)c(C)c(CNC(=O)c2ccn(C)c(=O)c2O)c(C)c1CNC(=O)c1ccn(C)c(=O)c1O [ME-Me-3,2-HOPO] | 6.1 ± 4.9^d percent of injected ^238Pu | 12 ± 1.8% of injected ^238Pu | 3.0 ± 2.0% of injected ^238Pu | 22 ± 8.5^d percent of injected ^238Pu | 70.1% of injected ^238Pu | 33.5% of injected ^238Pu | 0.9% of injected ^238Pu | – |
| Cn1ccc(C(=O)NCCCN(CCCNC(=O)c2ccn(C)c(=O)c2O)CCCNC(=O)c2ccn(C)c(=O)c2O)c(O)c1=O [TRPN-Me-3,2-HOPO] | 17 ± 5.0% of injected ^238Pu | 14 ± 3.2% of injected ^238Pu | 2.0 ± 1.1% of injected ^238Pu | 33 ± 5.3% of injected ^238Pu | 11.5% of injected ^238Pu | 55% of injected ^238Pu | – | – |
| Cn1ccc(C(=O)NCCOCCNC(=O)c2ccn(C)c(=O)c2O)c(O)c1=O [5-LI-O-Me-3,2-HOPO, 1,5-bis[(3-hydroxy-1-methyl-2-oxo-1,2-dihydropyridin-4-yl)carboxamino]-3-oxypentane] | 2.1 ± 0.3^d percent of injected ^238Pu | 11 ± 1.6% of injected ^238Pu | 1.6 ± 0.2^d percent of injected ^238Pu | 15 ± 2.1^d percent of injected ^238Pu | 61.7% of injected ^238Pu | 23.5% of injected ^238Pu | 0.2% of injected ^238Pu | toxicity (in words) ([1]; even at the relatively high dosage of 2x500 µmol/kg in 8 hours): low toxicity; no. of survivors [1, 4]: 5; percent control mean + SD: body weight [1, 4]: 103 ± 5 percent control; percent control mean + SD: kidney weight [1, 4]: 100 ± 19 percent control; percent control mean + SD: plasma urea N [1, 4]: 83 ± 5 percent control; no. of survivors [1, 5]: 5; percent control mean + SD: body weight [1, 5]: 101 ± 5 percent control; percent control mean + SD: kidney weight [1, 5]: 111 ± 5 percent control; percent control mean + SD: plasma urea N [1, 5]: 86 ± 18 percent control; no. of survivors [1, 6]: 10; percent control mean + SD: body weight [1, 6]: 100 ± 2 percent control; percent control mean + SD: kidney weight [1, 6]: 108 ± 10 percent control; percent control mean + SD: plasma urea N [1, 6]: 77 ± 10 percent control; Pu removal (in words) ([2]; injected ligands, 30 µmol/kg intraperitoneally one hour after ^238Pu(IV)): as effective or more effective than the hexadentate and octadentate chelating agents |
